According to ChEMBL document CHEMBL3745662, “Preliminary investigation of 6,7-dihydropyrazolo[1,5-a]pyrazin-4-one derivatives as a novel series of mGlu5 receptor positive allosteric modulators with efficacy in preclinical models of schizophrenia” (Bioorg Med Chem Lett, 2016):

Experiments:
Assay type in all cases: functional, cell-based
[1] = target: T1, Metabotropic glutamate receptor 5 (Homo sapiens, UniProt P41594); experiment: Positive allosteric modulation of human mGlu5 expressed in HEK293 cells assessed as glutamate-induced calcium mobilization; conditions: read-out: EC50
Target sequence in this assay (P41594 whole entry): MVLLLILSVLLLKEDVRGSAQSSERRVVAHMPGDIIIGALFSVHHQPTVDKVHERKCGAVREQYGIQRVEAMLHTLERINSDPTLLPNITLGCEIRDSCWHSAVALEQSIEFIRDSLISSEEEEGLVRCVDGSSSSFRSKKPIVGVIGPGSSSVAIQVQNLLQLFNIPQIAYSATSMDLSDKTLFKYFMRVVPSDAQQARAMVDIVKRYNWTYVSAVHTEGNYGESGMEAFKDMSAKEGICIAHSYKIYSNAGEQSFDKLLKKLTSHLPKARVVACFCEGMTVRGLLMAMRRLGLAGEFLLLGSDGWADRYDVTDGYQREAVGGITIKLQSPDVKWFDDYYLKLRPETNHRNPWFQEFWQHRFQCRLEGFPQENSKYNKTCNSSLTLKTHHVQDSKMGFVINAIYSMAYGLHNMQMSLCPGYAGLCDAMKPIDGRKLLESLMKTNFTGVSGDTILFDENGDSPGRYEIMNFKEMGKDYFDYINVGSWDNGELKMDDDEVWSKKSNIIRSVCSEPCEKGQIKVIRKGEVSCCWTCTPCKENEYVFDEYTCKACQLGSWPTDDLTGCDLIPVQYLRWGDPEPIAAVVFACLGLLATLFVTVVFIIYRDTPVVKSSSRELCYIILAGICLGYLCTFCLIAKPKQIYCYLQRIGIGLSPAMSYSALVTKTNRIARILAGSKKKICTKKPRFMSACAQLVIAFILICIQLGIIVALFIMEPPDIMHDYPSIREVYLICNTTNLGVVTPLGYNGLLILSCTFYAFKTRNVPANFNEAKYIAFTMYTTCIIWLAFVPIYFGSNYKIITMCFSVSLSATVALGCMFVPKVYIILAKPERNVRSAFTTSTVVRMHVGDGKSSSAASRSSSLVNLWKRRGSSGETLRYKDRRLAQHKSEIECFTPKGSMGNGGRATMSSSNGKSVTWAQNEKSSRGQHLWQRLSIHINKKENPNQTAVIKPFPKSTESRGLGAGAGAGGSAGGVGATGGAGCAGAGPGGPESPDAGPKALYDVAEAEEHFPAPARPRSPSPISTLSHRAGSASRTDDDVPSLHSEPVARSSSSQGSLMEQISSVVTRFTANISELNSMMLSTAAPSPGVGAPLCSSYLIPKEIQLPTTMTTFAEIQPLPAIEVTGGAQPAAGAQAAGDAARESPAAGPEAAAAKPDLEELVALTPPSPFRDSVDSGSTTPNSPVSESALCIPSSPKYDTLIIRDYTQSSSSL

[2] = target: T1, Metabotropic glutamate receptor 5; experiment: Positive allosteric modulation of human mGlu5 expressed in HEK293 cells assessed as glutamate-induced calcium mobilization relative to glutamate
Target sequence in this assay (P41594 21-1212 limits assumed): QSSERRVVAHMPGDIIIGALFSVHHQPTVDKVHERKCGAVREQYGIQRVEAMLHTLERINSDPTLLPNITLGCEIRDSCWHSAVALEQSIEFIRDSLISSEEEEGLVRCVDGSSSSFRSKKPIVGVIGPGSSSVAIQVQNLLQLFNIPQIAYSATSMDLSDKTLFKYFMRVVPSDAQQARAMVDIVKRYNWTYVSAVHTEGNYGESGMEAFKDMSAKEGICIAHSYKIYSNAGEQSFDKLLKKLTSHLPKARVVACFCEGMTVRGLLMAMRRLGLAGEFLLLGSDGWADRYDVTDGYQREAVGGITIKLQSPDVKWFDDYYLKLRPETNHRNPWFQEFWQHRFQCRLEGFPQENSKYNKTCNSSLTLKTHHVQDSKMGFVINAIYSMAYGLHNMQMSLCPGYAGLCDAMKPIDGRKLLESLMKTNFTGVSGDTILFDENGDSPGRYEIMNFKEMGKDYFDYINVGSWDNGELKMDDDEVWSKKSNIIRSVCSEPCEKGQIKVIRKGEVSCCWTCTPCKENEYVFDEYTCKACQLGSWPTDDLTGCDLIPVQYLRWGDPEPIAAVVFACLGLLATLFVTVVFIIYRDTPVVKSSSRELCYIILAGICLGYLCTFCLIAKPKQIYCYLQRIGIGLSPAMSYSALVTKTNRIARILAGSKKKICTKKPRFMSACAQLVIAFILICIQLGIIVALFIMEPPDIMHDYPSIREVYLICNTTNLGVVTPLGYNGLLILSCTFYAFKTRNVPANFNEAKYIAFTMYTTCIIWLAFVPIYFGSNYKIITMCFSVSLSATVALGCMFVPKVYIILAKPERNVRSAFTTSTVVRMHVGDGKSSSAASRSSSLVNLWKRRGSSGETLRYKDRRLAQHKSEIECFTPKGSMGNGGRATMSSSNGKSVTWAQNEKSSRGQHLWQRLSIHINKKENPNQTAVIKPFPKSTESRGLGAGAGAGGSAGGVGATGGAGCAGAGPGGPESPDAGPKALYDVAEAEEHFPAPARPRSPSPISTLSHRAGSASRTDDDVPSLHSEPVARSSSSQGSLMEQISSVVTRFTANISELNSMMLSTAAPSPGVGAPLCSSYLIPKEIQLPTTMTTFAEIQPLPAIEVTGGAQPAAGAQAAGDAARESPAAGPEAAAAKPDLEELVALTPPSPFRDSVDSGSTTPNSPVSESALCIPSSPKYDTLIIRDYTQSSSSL

[3] = target: Metabotropic glutamate receptor 3 (Homo sapiens, UniProt Q14832); experiment: Antagonist activity at human mGlu3 expressed in HEK293 cells assessed as inhibition of glutamate-induced calcium mobilization
Metabotropic glutamate receptor 3, sequence (Q14832 whole entry): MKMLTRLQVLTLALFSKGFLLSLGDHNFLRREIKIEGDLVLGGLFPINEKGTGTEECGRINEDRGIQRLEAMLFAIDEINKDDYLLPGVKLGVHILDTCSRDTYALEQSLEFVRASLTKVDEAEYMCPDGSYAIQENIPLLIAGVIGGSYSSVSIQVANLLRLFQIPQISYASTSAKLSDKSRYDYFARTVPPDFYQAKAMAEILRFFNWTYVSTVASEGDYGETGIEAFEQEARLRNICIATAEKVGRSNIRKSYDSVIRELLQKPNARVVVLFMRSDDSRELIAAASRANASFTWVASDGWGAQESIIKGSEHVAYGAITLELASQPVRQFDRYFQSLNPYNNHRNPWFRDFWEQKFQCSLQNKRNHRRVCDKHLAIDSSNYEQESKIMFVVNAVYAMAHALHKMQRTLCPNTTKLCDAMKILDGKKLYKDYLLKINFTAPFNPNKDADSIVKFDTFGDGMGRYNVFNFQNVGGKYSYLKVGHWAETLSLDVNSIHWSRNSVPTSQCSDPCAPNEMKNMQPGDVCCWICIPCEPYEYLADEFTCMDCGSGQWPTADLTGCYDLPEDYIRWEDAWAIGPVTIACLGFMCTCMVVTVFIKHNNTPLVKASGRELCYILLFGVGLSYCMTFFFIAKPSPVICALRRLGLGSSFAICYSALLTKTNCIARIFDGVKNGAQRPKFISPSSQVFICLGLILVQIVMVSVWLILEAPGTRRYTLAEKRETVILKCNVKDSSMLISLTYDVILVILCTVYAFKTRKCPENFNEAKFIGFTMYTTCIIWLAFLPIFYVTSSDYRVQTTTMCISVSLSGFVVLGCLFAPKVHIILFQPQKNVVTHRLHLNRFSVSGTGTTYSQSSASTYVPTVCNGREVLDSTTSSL

Structure (SMILES) | EC50 [1] [nM] | Emax [2] [%] | EC50 [3] [nM]
CC(Oc1ccccc1)c1cc2n(n1)CCN(c1ccc(F)cc1)C2=O (stereo unspecified) | 7760 | 65 | –
Cc1ccc(N2CCn3nc(COc4ccccc4)cc3C2=O)nc1 | 190 | 76 | –
O=C1c2c(Cl)c(COc3ccccc3)nn2CCN1c1ccc(F)cc1 | > 30000 | – | –
O=C1c2cc(COc3ccc(F)cn3)nn2CCN1c1ccc(F)cc1 | 7940 | 52 | –
COc1ccc(N2CCn3nc(COc4ccccc4)cc3C2=O)cc1 | 110 | 58 | –
O=C1c2cc(COc3ccccc3)nn2CCN1c1ncc(F)cn1 | 760 | 72 | –
O=C1c2cc(COc3ccccc3)nn2CCN1c1cccc(F)c1 | 130 | 81 | –
O=C1c2cc(COc3cccc(F)c3)nn2CCN1c1ccc(F)cn1 | 91 | 62 | –
O=C1c2cc(COc3ccccc3)nn2CCN1c1ccc(F)cc1F | 100 | 101 | –
O=C1c2cc(COc3ccccn3)nn2CCN1c1ccc(F)cc1 | 490 | 68 | 290
O=C1c2cc(COc3ccncc3)nn2CCN1c1ccc(F)cc1 | 690 | 69 | –
O=C1c2cc(COc3ccccc3)nn2CCN1c1cccnc1 | 2090 | 64 | –
Cc1c(COc2ccccc2)nn2c1C(=O)N(c1ccc(F)cc1)CC2 | 1230 | 32 | –
O=C1c2cc(COc3cccnc3)nn2CCN1c1ccc(F)cc1 | 3980 | 69 | –
O=C1c2cc(COc3ccc(F)cc3)nn2CCN1c1ccc(F)cc1 | 100 | 72 | 34
